Test results taken from patent US4797415A, “Benzofuran derivatives and use thereof for treating hyperuricemia” (Kotobuki Seiyaku Company Limited, priority 1982, dated 1989).
Where two headings read alike, the source gives them in different places.

Experiments:
[1] = test system: phenol red retention in circulation; assay: Uricosuric activity by phenol red retention test in mice; assay type: in vivo, male mice; details: mice, 30 min before 75 mg/kg phenol red, blood 60 min after phenol red; for response vs control in vivo at 200 mg/kg: Mus musculus, 1 h
Method: (§1) Blood samples were collected from the retro-orbital plexus into heparinized capillary tubes 60 minutes after the phenol red injection. The retention of phenol red in circulation was determined according to the method described in J. Med. Pharmaceu.
Benzobromarone was administered subcutaneously to mice in an amount of 200 mg./kg. as a control or standard.

phenol red retention = assay: Uricosuric activity by phenol red method in rats; assay type: in vivo; details: p.o. 100 mg/kg
Method: as §1
The same test of uricosuric activity was applied to rats.

[2] = po, p.o. 200 mg/kg, read-out: phenol red retention, percentage by comparison with the control group, P.O. (200 mg/kg)
[3] = sc, s.c. 200 mg/kg, read-out: phenol red retention, percentage by comparison with the control group, S.C. (200 mg/kg)

CCOC(=O)COc1ccc(C(OCC)c2c(CC)oc3ccccc23)cc1 (stereo not drawn) [Compound 14]
response vs control in vivo at 200 mg/kg [1, 2]: 120 ± 15% | response vs control in vivo at 200 mg/kg [1, 3]: 135 ± 34.6%

CCOC(=O)COc1ccc(C(=O)c2c(CC)oc3ccccc23)cc1Cl [Compound 20, Ethyl 2-chloro-4-(2-ethyl-3-benzofuroyl)phenoxyacetate]
response vs control in vivo at 200 mg/kg [1, 3]: 128 ± 16.7%

CCc1oc2ccccc2c1C(=O)c1cc(C)c(OCC(=O)O)c(C)c1 [Compound 42, 2,6-dimethyl-4-(2-ethyl-3-benzofuroyl)phenoxyacetic acid]
response vs control in vivo at 200 mg/kg [1, 2]: 394 ± 44.4%

CCc1oc2ccccc2c1C(=O)c1ccc(OCC(=O)NCC(N)=O)cc1 [Compound 10, 4-(2-ethyl-3-benzofuroyl)phenoxyacetoglycinamide]
response vs control in vivo at 200 mg/kg [1, 2]: 132 ± 26.3% | response vs control in vivo at 200 mg/kg [1, 3]: 123 ± 23.1%

CCc1oc2ccccc2c1C(=O)c1ccc(OC(C)C(=O)O)cc1 (stereo not drawn) [Compound 5, 4-(2-ethyl-3-benzofuroyl)phenoxy-2-methylacetic acid]
response vs control in vivo at 200 mg/kg [1, 2]: 176 ± 17.6% | response vs control in vivo at 200 mg/kg [1, 3]: 158 ± 15.1%

CCc1oc2ccccc2c1C(=O)c1ccc(OCc2nnn[nH]2)cc1 [Compound 43, 5-[4-(2-ethyl-3-benzofuroyl)phenoxymethyl]tetrazole]
response vs control in vivo at 200 mg/kg [1, 2]: 430 ± 80%

CCc1oc2ccccc2c1C(=O)c1cc(C)c(O)cc1C [Compound 36, 2-ethyl-3-(2,5-dimethyl-4-hydroxybenzoyl)benzofuran]
response vs control in vivo at 200 mg/kg [1, 2]: 131 ± 15.6%

CCc1oc2ccccc2c1C(=O)c1ccc(OCC(N)=O)cc1 [Compound 7, 4-(2-ethyl-3-benzofuroyl)phenoxyacetamide]
response vs control in vivo at 200 mg/kg [1, 2]: 104 ± 8.3% | response vs control in vivo at 200 mg/kg [1, 3]: 123 ± 23.1%

CCOC(=O)COc1ccc(C(=O)c2c(CC)oc3ccccc23)cc1[N+](=O)[O-] [Compound 27, Ethyl 2-nitro-4-(2-ethyl-3-benzofuroyl)phenoxyacetate]
response vs control in vivo at 200 mg/kg [1, 3]: 111 ± 11.1%

CCOC(=O)COc1cc(C)c(C(=O)c2c(CC)oc3ccccc23)cc1C [Compound 38, Ethyl 2,5-dimethyl-4-(2-ethyl-3-benzofuroyl)phenoxyacetate]
response vs control in vivo at 200 mg/kg [1, 2]: 324 ± 19%

CCc1oc2ccccc2c1C(=O)c1cc(C)c(OCC(=O)OC)cc1C [Compound 37, Methyl 2,5-dimethyl-4-(2-ethyl-3-benzofuroyl)phenoxyacetate]
response vs control in vivo at 200 mg/kg [1, 2]: 254 ± 15.6%

CCOC(=O)COc1c(C)cc(C(=O)c2c(CC)oc3ccccc23)cc1C [Compound 41, Ethyl 2,6-dimethyl-4-(2-ethyl-3-benzofuroyl)phenoxyacetate]
response vs control in vivo at 200 mg/kg [1, 2]: 183 ± 27.8%

CCc1oc2ccccc2c1C(=O)c1cc(C)c(OCc2nnn[nH]2)cc1C [Compound 47, 5-[2,5-dimethyl-4-(2-ethyl-3-benzofuroyl)phenoxymethyl]tetrazole]
response vs control in vivo at 200 mg/kg [1, 2]: 232 ± 28%

CCc1oc2ccccc2c1C(=O)c1ccc(OCCC(=O)O)cc1 [Compound 4, 4-(2-ethyl-3-benzofuroyl)phenoxypropionic acid]
response vs control in vivo at 200 mg/kg [1, 3]: 143 ± 19%

CCc1oc2ccccc2c1C(=O)c1ccc(OCC(=O)NCC(=O)OC)cc1 [Compound 9, Methyl 4-(2-ethyl-3-benzofuroyl)phenoxyacetoglycinate]
response vs control in vivo at 200 mg/kg [1, 2]: 153 ± 15.8% | response vs control in vivo at 200 mg/kg [1, 3]: 125 ± 18.8%

CCOC(=O)COc1ccc(C(=O)c2c(CC)oc3ccccc23)cc1C [Compound 24, Ethyl 2-methyl-4-(2-ethyl-3-benzofuroyl)phenoxyacetate]
response vs control in vivo at 200 mg/kg [1, 3]: 172 ± 27.7%

CCc1oc2ccccc2c1C(=O)c1ccc(OCC(=O)O)c(Cl)c1 [Compound 22, 2-chloro-4-(2-ethyl-3-benzofuroyl)phenoxyacetic acid]
response vs control in vivo at 200 mg/kg [1, 2]: 190 ± 26.3% | response vs control in vivo at 200 mg/kg [1, 3]: 211 ± 33.3% | Phenol Red Retention % in Rats 100 mg/kg (p.o.) (phenol red retention): 217.2 ± 17.2%

CCc1oc2ccccc2c1C(=O)c1ccc(O)c(Cl)c1 [Compound 19, 2-ethyl-3-benzofuranyl 3-chloro-4-hydroxyphenyl ketone]
response vs control in vivo at 200 mg/kg [1, 3]: 105 ± 19%

CCCCOC(=O)COc1ccc(C(OCCCC)c2c(CC)oc3ccccc23)cc1 (stereo not drawn) [Compound 15, Butyl 4-(2-ethyl-3-butoxymethylbenzofuranyl)phenoxyacetate]
response vs control in vivo at 200 mg/kg [1, 2]: 175 ± 35% | response vs control in vivo at 200 mg/kg [1, 3]: 165 ± 34.6%

CCc1oc2ccccc2c1C(=O)c1ccc(OCC(=O)OC)c(C)c1C [Compound 33, Methyl 2,3-dimethyl-4-(2-ethyl-3-benzofuroyl)phenoxyacetate]
response vs control in vivo at 200 mg/kg [1, 2]: 133 ± 15.6%

CCc1oc2ccccc2c1C(=O)c1cc(C)c(OCC(=O)O)cc1C [Compound 39]
response vs control in vivo at 200 mg/kg [1, 2]: 410 ± 28.6% | Phenol Red Retention % in Rats 100 mg/kg (p.o.) (phenol red retention): 175.7 ± 21.6%

CCc1oc2ccccc2c1C(=O)c1ccc(O)c([N+](=O)[O-])c1 [Compound 26, 2-ethyl-3-benzofuranyl 3-nitro-4-hydroxyphenyl ketone]
phenol red retention, percentage by comparison with the control group, S.C. (given at a dose of 100 mg/kg) ([1]; s.c. 100 mg/kg (footnote *)): 222.2 ± 27.7%

CCOC(=O)COc1ccc(C(=O)c2c(CC)sc3ccccc23)cc1 [Compound 30, Ethyl 4-(2-ethyl-3-benzothenoyl)phenoxyacetate]
response vs control in vivo at 200 mg/kg [1, 3]: 85.7 ± 14.3%

CCc1oc2ccccc2c1C(O)c1ccc(O)cc1 (stereo not drawn) [Compound 12, (2-ethyl-3-benzofuranyl)-4-hydroxyphenylmethanol]
response vs control in vivo at 200 mg/kg [1, 3]: 100 ± 21.4%

CCc1oc2ccccc2c1C(=O)c1ccc(OCC(=O)OC)cc1 [Compound 11, Methyl 4-(2-ethyl-3-benzofuroyl)phenoxyacetate]
response vs control in vivo at 200 mg/kg [1, 3]: 114 ± 9.5%

CCc1sc2ccccc2c1C(=O)c1ccc(O)cc1 [Compound 29, 2-ethyl-3-(4-hydroxybenzoyl)thianaphthene]
response vs control in vivo at 200 mg/kg [1, 3]: 100 ± 21.4%

CCc1oc2ccccc2c1C(=O)c1ccc(O)c(C)c1 [Compound 23, 2-ethyl-3-benzofuranyl 3-methyl-4-hydroxyphenyl ketone]
response vs control in vivo at 200 mg/kg [1, 3]: 81 ± 14.3%

CCc1sc2ccccc2c1C(=O)c1ccc(OCC(=O)O)cc1 [Compound 31, 4-(2-ethyl-3-benzothenoyl)phenoxyacetic acid]
response vs control in vivo at 200 mg/kg [1, 2]: 162 ± 31.3% | response vs control in vivo at 200 mg/kg [1, 3]: 144 ± 22.2%

CCc1oc2ccccc2c1C(=O)c1ccc(OCC(=O)NO)cc1 [Compound 8, 4-(2-ethyl-3-benzofuroyl)phenoxyacetohydroxamide]
response vs control in vivo at 200 mg/kg [1, 2]: 129 ± 17.6% | response vs control in vivo at 200 mg/kg [1, 3]: 167 ± 26.6%

CCOC(=O)COc1ccc(C(=O)c2c(CC)oc3ccccc23)cc1 [Compound 6, Ethyl 4-(2-ethyl-3-benzofuroyl)phenoxyacetate]
response vs control in vivo at 200 mg/kg [1, 2]: 119 ± 2.3% | response vs control in vivo at 200 mg/kg [1, 3]: 207 ± 32.5%

CCc1oc2ccccc2c1C(=O)c1ccc(OCc2nnn[nH]2)c(C)c1C [Compound 46, 5-[2,3-dimethyl-4-(2-ethyl-3-benzofuroyl)phenoxymethyl]tetrazole]
response vs control in vivo at 200 mg/kg [1, 2]: 240 ± 64%

CCc1oc2ccccc2c1C(=O)c1ccc(OCc2nnn[nH]2)c(Cl)c1 [Compound 44, 5-[2-chloro-4-(2-ethyl-3-benzofuroyl)phenoxymethyl]tetrazole]
response vs control in vivo at 200 mg/kg [1, 2]: 175 ± 17.9%

C=C(CC(=O)c1c(CC)oc2ccccc12)C(=O)O [Compound 21, 2-methylene-4-oxo-4-(2-ethyl-3-benzofuranyl)butyric acid]
response vs control in vivo at 200 mg/kg [1, 2]: 165 ± 21.7% | response vs control in vivo at 200 mg/kg [1, 3]: 100 ± 13.6%

CCOC(=O)COc1ccc(C(=O)c2c(C)oc3ccccc23)cc1 [Compound 17, Ethyl 4-(2-methyl-3-benzofuroyl)phenoxyacetate]
response vs control in vivo at 200 mg/kg [1, 2]: 105 ± 10% | response vs control in vivo at 200 mg/kg [1, 3]: 115 ± 19.2%

Cc1oc2ccccc2c1C(=O)c1ccc(OCC(=O)O)cc1 [Compound 18, 4-(2-methyl-3-benzofuroyl)phenoxyacetic acid]
response vs control in vivo at 200 mg/kg [1, 2]: 135 ± 40% | response vs control in vivo at 200 mg/kg [1, 3]: 112 ± 15.4%

CCc1oc2ccccc2c1C(=O)c1cc(C)c(O)c(C)c1 [Compound 40, 2-ethyl-3-(3,5-dimethyl-4-hydroxybenzoyl)benzofuran]
response vs control in vivo at 200 mg/kg [1, 2]: 183 ± 22.2%

CCc1oc2ccccc2c1C(=O)c1ccc(OCc2nnn[nH]2)c(C)c1 [Compound 45, 5-[2-methyl-4-(2-ethyl-3-benzofuroyl)phenoxymethyl]tetrazole]
response vs control in vivo at 200 mg/kg [1, 2]: 218 ± 21.4%

CCOC(=O)COc1ccc(C(O)c2c(CC)oc3ccccc23)cc1 (stereo not drawn) [Compound 13, Ethyl 4-(2-ethyl-3-hydroxymethylbenzofuranyl)phenoxyacetate]
response vs control in vivo at 200 mg/kg [1, 3]: 114 ± 14.3%

CCc1oc2ccccc2c1C(=O)c1ccccc1OCC(=O)O [Compound 1, 2-(2-ethyl-3-benzofuroyl)phenoxyacetic acid]
response vs control in vivo at 200 mg/kg [1, 3]: 152 ± 15.2%

CCc1oc2ccccc2c1C(=O)c1cccc(OCC(=O)O)c1 [Compound 2, 3-(2-ethyl-3-benzofuroyl)phenoxyacetic acid]
response vs control in vivo at 200 mg/kg [1, 3]: 180 ± 15.4%

CCc1oc2ccccc2c1C(=O)c1ccc(O)c(C)c1C [Compound 32, 2-ethyl-3-(2,3-dimethyl-4-hydroxybenzoyl)benzofuran]
response vs control in vivo at 200 mg/kg [1, 2]: 112 ± 18.8%

CCc1oc2ccccc2c1C(=O)c1cc(C)c(OCc2nnn[nH]2)c(C)c1 [Compound 48, 5-[2,6-dimethyl-4-(2-ethyl-3-benzofuroyl)phenoxymethyl]tetrazole]
response vs control in vivo at 200 mg/kg [1, 2]: 296 ± 56%

Cc1oc2ccccc2c1C(=O)c1ccc(O)cc1 [Compound 16, 2-methyl-3-(4-hydroxybenzoyl)benzofuran]
response vs control in vivo at 200 mg/kg [1, 2]: 112 ± 12.5% | response vs control in vivo at 200 mg/kg [1, 3]: 111 ± 11.1%

CCOC(=O)COc1ccc(C(=O)c2c(CC)oc3ccccc23)c(C)c1C [Compound 34, Ethyl 2,3-dimethyl-4-(2-ethyl-3-benzofuroyl)phenoxyacetate]
response vs control in vivo at 200 mg/kg [1, 2]: 124 ± 28.6%
